From patent US4492693A, “Benzothienylglycyl cephalosporin derivatives” (priority 1983, dated 1985)
In brackets after ≈: the same amount, converted by molar mass. Read-outs that look alike come from different tables or passages of the source.

Columns and labels:
Format in all cases: cell-based
[1] = tested on: Staph. aureus; assay: Agar Dilution MIC (Table I); conditions: Staphylococcus aureus
[2] = tested on: Staph. epi; assay: Agar Dilution MIC (Table I); conditions: read-out: Agar Dilution MIC
[3] = tested on: Strep. A; assay: Agar Dilution MIC (Table I); conditions: strain C203; read-out: Agar Dilution MIC
[4] = tested on: Strep. PN; assay: Agar Dilution MIC (Table I); conditions: strain PARK
[5] = tested on: Strep. D; assay: Agar Dilution MIC (Table I); conditions: for MIC: read-out: Agar Dilution MIC
Description: (§1) A typical and preferred compound provided by this invention is 7-(3-benzothienyl)glycylamido-3-methyl-3-cephem-4-carboxylic acid, the compound illustrated in Example 9. The antibacterial activity of this compound has been determined in standard in vitro agar dilution assays against a variety of gram positive and gram negative microorganism. The following Tables present typical minimum inhibitory concentrations (MIC's) in μg/ml for several compounds of the invention when evaluated against the indicated microorganisms. MIC's for several known compounds are also presented for comparison.
Agar Dilution MIC (μg/ml)

[6] = tested on: H. influ.; assay: Agar Dilution MIC (Table I); conditions: read-out: Agar Dilution MIC
[7] = tested on: E. coli; assay: Agar Dilution MIC (Table I); conditions: Escherichia coli
[8] = tested on: Klebsiella; assay: Agar Dilution MIC (Table I); conditions: for MIC: Klebsiella, read-out: Agar Dilution MIC
[9] = tested on: H. influenzae; assay: Expanded Spectrum MIC (Table II); conditions: Haemophilus influenzae
Description: as §1
(§2) Expanded Spectrum MIC (μg/ml)

[10] = tested on: Staph. aureus; assay: Expanded Spectrum MIC (Table II); conditions: Staphylococcus aureus
Description: as §1, §2

[11] = tested on: Staph. epi; assay: Expanded Spectrum MIC (Table II)
Description: as §1, §2

[12] = tested on: Bacteroides corrodens; assay: Susceptibility of Anaerobic Bacteroides Isolates by the Agar-Dilution Method (Table III); conditions: Eikenella corrodens; strain 1874; readings 24 hrs. after incubation
Description: as §1
(§3) Susceptibility of Anaerobic Bacteroides Isolates by the
(§4) Agar-Dilution Method MIC (μg/ml) readings 24 hrs. after incubation

[13] = tested on: Bacteroides fragilis; assay: as above; conditions: 24 h
Description: as §1, §3, §4

[14] = tested on: Bacteroides thetaiotaomicron; assay: as above; conditions: 24 h
Description: as §1, §3, §4

[15] = strain V41, read-out: Agar Dilution MIC
[16] = strain X1.1, read-out: Agar Dilution MIC
[17] = strain X400, read-out: Agar Dilution MIC
[18] = strain 9, readings 24 hrs. after incubation
[19] = strain 103, readings 24 hrs. after incubation
[20] = strain 104, readings 24 hrs. after incubation
[21] = strain 106, readings 24 hrs. after incubation
[22] = strain 107, readings 24 hrs. after incubation
[23] = strain 108, readings 24 hrs. after incubation
[24] = strain 110, readings 24 hrs. after incubation
[25] = strain 111, readings 24 hrs. after incubation
[26] = strain 1877, readings 24 hrs. after incubation
[27] = strain 1438, readings 24 hrs. after incubation
[28] = strain 1900A, readings 24 hrs. after incubation

SMILES: CON=C(C(=O)NC1C(=O)N2C(C(=O)O)=C(C)CSC12)c1csc2cc(OC)ccc12 (stereo not drawn) [Ex. 22]
- MIC [1, 15]: 8 µg/mL (≈ 17.3 µM)
- MIC [1, 16]: 1 µg/mL (≈ 2.17 µM)
- MIC [1, 17]: 64 µg/mL (≈ 139 µM)
- MIC ([2]; strain 222): 4 µg/mL (≈ 8.67 µM)
- MIC ([2]; strain EPI1): 8 µg/mL (≈ 17.3 µM)
- MIC [3]: 0.5 µg/mL (≈ 1.08 µM)
- MIC [4]: 0.5 µg/mL (≈ 1.08 µM)
- MIC ([5]; strain 2041): 64 µg/mL (≈ 139 µM)
- MIC ([5]; strain X66): 64 µg/mL (≈ 139 µM)
- MIC ([6]; strain 76): 2 µg/mL (≈ 4.33 µM)
- MIC ([6]; strain C.L.): 8 µg/mL (≈ 17.3 µM)
- MIC ([7]; strain EC14): 64 µg/mL (≈ 139 µM)
- MIC ([7]; strain N10): 128 µg/mL (≈ 277 µM)
- MIC ([7]; strain TEM): 128 µg/mL (≈ 277 µM)
- MIC ([8]; strain KAE): 128 µg/mL (≈ 277 µM)
- MIC ([8]; strain X26): 1 µg/mL (≈ 2.17 µM)
- MIC ([8]; strain X68): 128 µg/mL (≈ 277 µM)
- MIC ([9]; strain 76): 1 µg/mL (≈ 2.17 µM)
- MIC ([9]; strain 105): 2 µg/mL (≈ 4.33 µM)
- MIC ([9]; strain 158): 1 µg/mL (≈ 2.17 µM)
- MIC ([9]; strain 164): 1 µg/mL (≈ 2.17 µM)
- MIC ([9]; strain 169): 2 µg/mL (≈ 4.33 µM)
- MIC ([9]; strain 171): 2 µg/mL (≈ 4.33 µM)
- MIC ([9]; strain 312): 1 µg/mL (≈ 2.17 µM)
- MIC ([9]; strain 1683): 0.5 µg/mL (≈ 1.08 µM)
- MIC ([9]; strain 1930): 1 µg/mL (≈ 2.17 µM)
- MIC ([9]; strain 4842): 1 µg/mL (≈ 2.17 µM)
- MIC ([9]; strain C.L.): 4 µg/mL (≈ 8.67 µM)
- MIC ([9]; strain HESS): 4 µg/mL (≈ 8.67 µM)
- MIC ([9]; strain M366): 64 µg/mL (≈ 139 µM)
- MIC ([9]; strain M370): 1 µg/mL (≈ 2.17 µM)
- MIC ([9]; strain M371): 2 µg/mL (≈ 4.33 µM)
- MIC ([9]; strain R465): 2 µg/mL (≈ 4.33 µM)
- MIC ([9]; strain STEL): 64 µg/mL (≈ 139 µM)
- MIC ([10]; strain S224): 2 µg/mL (≈ 4.33 µM)
- MIC ([10]; strain S225): 2 µg/mL (≈ 4.33 µM)
- MIC ([10]; strain S226): 2 µg/mL (≈ 4.33 µM)
- MIC ([10]; strain S227): 2 µg/mL (≈ 4.33 µM)
- MIC ([10]; strain S228): 2 µg/mL (≈ 4.33 µM)
- MIC ([10]; strain S229): 4 µg/mL (≈ 8.67 µM)
- MIC ([10]; strain S230): 2 µg/mL (≈ 4.33 µM)
- MIC ([10]; strain S231): 1 µg/mL (≈ 2.17 µM)
- MIC ([10]; strain S234): 2 µg/mL (≈ 4.33 µM)
- MIC ([10]; strain S237): 2 µg/mL (≈ 4.33 µM)
- MIC ([10]; strain S238): 4 µg/mL (≈ 8.67 µM)
- MIC ([10]; strain S239): 2 µg/mL (≈ 4.33 µM)
- MIC ([11]; strain 219): 2 µg/mL (≈ 4.33 µM)
- MIC ([11]; strain 269): 4 µg/mL (≈ 8.67 µM)
- MIC ([11]; strain 270): 8 µg/mL (≈ 17.3 µM)
- MIC ([11]; strain 285): 4 µg/mL (≈ 8.67 µM)
- MIC ([11]; strain 286): 1 µg/mL (≈ 2.17 µM)
- MIC ([11]; strain EPI1): 16 µg/mL (≈ 34.7 µM)

SMILES: CC1=C(C(=O)O)N2C(=O)C(NC(=O)[C@H](N)c3csc4cccc(F)c34)C2SC1 (stereo partly drawn) [Ex. 19, D-7-(4-Fluoro-3-benzothienyl)glycylamido-3-methyl-3-cephem-4-carboxylic acid]
- MIC [3]: 1 µg/mL (≈ 2.37 µM)
- MIC [4]: 4 µg/mL (≈ 9.49 µM)
- MIC ([5]; strain 2041): 128 µg/mL (≈ 304 µM)
- MIC ([5]; strain X66): 128 µg/mL (≈ 304 µM)
- MIC ([6]; strain 76): 4 µg/mL (≈ 9.49 µM)
- MIC ([6]; strain C.L.): 16 µg/mL (≈ 38 µM)
- MIC ([7]; strain EC14): 128 µg/mL (≈ 304 µM)
- MIC ([7]; strain N10): 128 µg/mL (≈ 304 µM)
- MIC ([7]; strain TEM): 128 µg/mL (≈ 304 µM)
- MIC ([8]; strain KAE): 128 µg/mL (≈ 304 µM)
- MIC ([8]; strain X26): 16 µg/mL (≈ 38 µM)
- MIC ([8]; strain X68): 128 µg/mL (≈ 304 µM)
- MIC ([9]; strain 76): 4 µg/mL (≈ 9.49 µM)
- MIC ([9]; strain 105): 4 µg/mL (≈ 9.49 µM)
- MIC ([9]; strain 158): 4 µg/mL (≈ 9.49 µM)
- MIC ([9]; strain 164): 4 µg/mL (≈ 9.49 µM)
- MIC ([9]; strain 169): 4 µg/mL (≈ 9.49 µM)
- MIC ([9]; strain 171): 4 µg/mL (≈ 9.49 µM)
- MIC ([9]; strain 312): 8 µg/mL (≈ 19 µM)
- MIC ([9]; strain 1683): 2 µg/mL (≈ 4.75 µM)
- MIC ([9]; strain 1930): 16 µg/mL (≈ 38 µM)
- MIC ([9]; strain 4842): 8 µg/mL (≈ 19 µM)
- MIC ([9]; strain C.L.): 16 µg/mL (≈ 38 µM)
- MIC ([9]; strain HESS): 16 µg/mL (≈ 38 µM)
- MIC ([9]; strain M366): 64 µg/mL (≈ 152 µM)
- MIC ([9]; strain M370): 4 µg/mL (≈ 9.49 µM)
- MIC ([9]; strain M371): 4 µg/mL (≈ 9.49 µM)
- MIC ([9]; strain R465): 64 µg/mL (≈ 152 µM)
- MIC ([9]; strain STEL): 64 µg/mL (≈ 152 µM)
- MIC ([10]; strain S224): 4 µg/mL (≈ 9.49 µM)
- MIC ([10]; strain S225): 4 µg/mL (≈ 9.49 µM)
- MIC ([10]; strain S226): 4 µg/mL (≈ 9.49 µM)
- MIC ([10]; strain S227): 4 µg/mL (≈ 9.49 µM)
- MIC ([10]; strain S228): 4 µg/mL (≈ 9.49 µM)
- MIC ([10]; strain S229): 8 µg/mL (≈ 19 µM)
- MIC ([10]; strain S230): 4 µg/mL (≈ 9.49 µM)
- MIC ([10]; strain S231): 2 µg/mL (≈ 4.75 µM)
- MIC ([10]; strain S234): 4 µg/mL (≈ 9.49 µM)
- MIC ([10]; strain S237): 4 µg/mL (≈ 9.49 µM)
- MIC ([10]; strain S238): 8 µg/mL (≈ 19 µM)
- MIC ([10]; strain S239): 8 µg/mL (≈ 19 µM)
- MIC [12]: 32 µg/mL (≈ 75.9 µM)
- MIC [13, 18]: 8 µg/mL (≈ 19 µM)
- MIC [13, 19]: 32 µg/mL (≈ 75.9 µM)
- MIC [13, 20]: 16 µg/mL (≈ 38 µM)
- MIC [13, 21]: 8 µg/mL (≈ 19 µM)
- MIC [13, 22]: 8 µg/mL (≈ 19 µM)
- MIC [13, 23]: 16 µg/mL (≈ 38 µM)
- MIC [13, 24]: 8 µg/mL (≈ 19 µM)
- MIC [13, 25]: 64 µg/mL (≈ 152 µM)
- MIC [13, 26]: 8 µg/mL (≈ 19 µM)
- MIC [14, 27]: 16 µg/mL (≈ 38 µM)
- MIC [14, 28]: 32 µg/mL (≈ 75.9 µM)

SMILES: CO[C@@]1(NC(=O)C(C(=O)O)c2ccc(O)cc2)C(=O)N2C(C(=O)O)=C(CSc3nnnn3C)CO[C@@H]21 (stereo partly drawn) [moxalactam, reference compound]
- MIC [12]: 8 µg/mL (≈ 15.4 µM)
- MIC [13, 18]: 0.5 µg/mL (≈ 0.961 µM)
- MIC [13, 19]: 4 µg/mL (≈ 7.69 µM)
- MIC [13, 20]: 0.5 µg/mL (≈ 0.961 µM)
- MIC [13, 21]: 1 µg/mL (≈ 1.92 µM)
- MIC [13, 22]: 1 µg/mL (≈ 1.92 µM)
- MIC [13, 23]: 0.5 µg/mL (≈ 0.961 µM)
- MIC [13, 24]: 0.5 µg/mL (≈ 0.961 µM)
- MIC [13, 25]: 8 µg/mL (≈ 15.4 µM)
- MIC [13, 26]: 2 µg/mL (≈ 3.84 µM)
- MIC [14, 27]: 2 µg/mL (≈ 3.84 µM)
- MIC [14, 28]: 64 µg/mL (≈ 123 µM)

SMILES: CC1=C(C(=O)O)N2C(=O)C(NC(=O)[C@@H](N)c3csc4cccc(Cl)c34)C2SC1 (stereo partly drawn) [Ex. 36A, L-7-(4-chloro-3-benzothienyl)glycylamido-3-methyl-3-cephem-4-carboxylic acid]
- MIC ([1]; read-out: Agar Dilution MIC, strain S13E): 128 µg/mL (≈ 292 µM)
- MIC [1, 15]: 128 µg/mL (≈ 292 µM)
- MIC [1, 16]: 64 µg/mL (≈ 146 µM)
- MIC [1, 17]: 128 µg/mL (≈ 292 µM)
- MIC [2]: 128 µg/mL (≈ 292 µM)
- MIC ([2]; strain 222): 64 µg/mL (≈ 146 µM)
- MIC [3]: 16 µg/mL (≈ 36.5 µM)
- MIC [4]: 8 µg/mL (≈ 18.3 µM)
- MIC [5]: 128 µg/mL (≈ 292 µM)
- Agar Dilution MIC ([5]; strain 2041): 128 µg/mL
- MIC [6]: 128 µg/mL (≈ 292 µM)
- MIC ([6]; strain 76): 4 µg/mL (≈ 9.13 µM)
- MIC ([7]; strain EC14): 128 µg/mL (≈ 292 µM)
- MIC ([7]; strain N10): 128 µg/mL (≈ 292 µM)
- MIC ([7]; strain TEM): 128 µg/mL (≈ 292 µM)
- MIC [8]: 128 µg/mL (≈ 292 µM)
- Agar Dilution MIC ([8]; strain KAE): 128 µg/mL
- Agar Dilution MIC ([8]; strain X68): 128 µg/mL
